Laboratory results reported in patent US20220073554A1, “LINCOSAMIDE ANTIBIOTICS AND USES THEREOF” (President and Fellows of Harvard College, priority 2017, published 2022).
≈ marks a conversion by molar mass, not a printed value. Where two headings read alike, the source gives them in different places.

Assays:
Type in all cases: cell-based
K. pneumoniae ATCC 10031 = assay: MIC against K. pneumoniae ATCC 10031; conditions: Klebsiella pneumoniae, ATCC10031; K. pneumoniae ATCC 10031; read-out: MIC
S. aureus MMX 3035 cErmA = assay: MIC against S. aureus MMX 3035 cErmA; conditions: Staphylococcus aureus, MMX3035CERMA
[1] = system: S. pneumoniae MMX 3031 cMefA; assay: MIC against S. pneumoniae MMX 3031 cMefA; conditions: Streptococcus pneumoniae, MMX3031CMEFA
S. pneumoniae ATCC 49619 = assay: MIC against S. pneumoniae ATCC 49619; conditions: Streptococcus pneumoniae, ATCC49619; S. pneumoniae ATCC 49619; read-out: MIC
S. pyogenes ATCC 19615 = assay: MIC against S. pyogenes ATCC 19615; conditions: Streptococcus pyogenes, ATCC19615
E. coli ATCC 15922 = assay: MIC against E. coli ATCC 15922; conditions: Escherichia coli, ATCC15922
[2] = system: S. pneumoniae MMX 3028 cErmB; assay: MIC against S. pneumoniae MMX 3028 cErmB; conditions: Streptococcus pneumoniae, MMX3028CERMB
[3] = system: E. coli MP-74 LptD mutant; assay: MIC against E. coli MP-74 LptD mutant; conditions: Escherichia coli
E. coli MP-9 ΔTolC = assay: MIC against E. coli MP-9 ΔTolC; conditions: Escherichia coli
[4] = system: S. pyogenes MMX 946 Macrolide-Resistant; assay: MIC against S. pyogenes MMX 946 Macrolide-Resistant; conditions: Streptococcus pyogenes
E. faecalis ATCC 29212 = assay: MIC against E. faecalis ATCC 29212; conditions: Enterococcus faecalis
[5] = system: P. aeruginosa MMX 3476 Δmex; assay: MIC against P. aeruginosa MMX 3476 Δmex; conditions: Pseudomonas aeruginosa
C. difficile BAA 1805 = assay: MIC against C. difficile BAA 1805; conditions: Clostridioides difficile, BAA1805
E. coli ATCC 25922 = assay: MIC against E. coli ATCC 25922; conditions: Escherichia coli, ATCC25922
H. influenzae ATCC 49247 = assay: MIC against H. influenzae ATCC 49247; conditions: Haemophilus influenzae, ATCC49247
P. aeruginosa ATCC 27853 = assay: MIC against P. aeruginosa ATCC 27853; conditions: Pseudomonas aeruginosa, ATCC27853
[6] = system: E. faecalis MMX 847 Macrolide-Resistant; assay: MIC against E. faecalis MMX 847 Macrolide-Resistant; conditions: Enterococcus faecalis
[7] = system: P. aeruginosa MMX Mex parent strain; assay: MIC against P. aeruginosa MMX Mex parent strain; conditions: Pseudomonas aeruginosa
[8] = system: E. coli MMX TolC parent strain; assay: MIC against E. coli MMX TolC parent strain; conditions: Escherichia coli
S. aureus BAA 977 iErmA = assay: MIC against S. aureus BAA 977 iErmA; conditions: Staphylococcus aureus, BAA977
B. fragilis ATCC 25285 = assay: MIC against B. fragilis ATCC 25285; conditions: Bacteroides fragilis, ATCC25285
S. aureus ATCC 29213 = assay: MIC against S. aureus ATCC 29213; conditions: Staphylococcus aureus
E. coli MMX 0121 ΔTolC = assay: MIC against E. coli MMX 0121 ΔTolC; conditions: Escherichia coli
[9] = system: S. aureus Micromyx USA 300; assay: MIC against S. aureus Micromyx USA 300; conditions: Staphylococcus aureus, USA300
[10] = system: S. aureus MP-549 msr(a) USA 300; assay: MIC against S. aureus MP-549 msr(a) USA 300; conditions: Staphylococcus aureus, USA300, S. aureus MP-549 msr(a) USA 300
[11] = S. aureus MMX 3035 cErmA, read-out: MIC
[12] = S. pyogenes ATCC 19615, read-out: MIC
[13] = E. coli ATCC 15922, read-out: MIC
[14] = S. pneumoniae MMX 3028 cErmB, read-out: MIC
[15] = H. influenzae ATCC 49247, read-out: MIC
[16] = C. difficile BAA 1805, read-out: MIC
[17] = B. fragilis ATCC 25285, read-out: MIC
[18] = P. aeruginosa ATCC 27853, read-out: MIC
[19] = P. aeruginosa MMX Mex parent strain, read-out: MIC

Compound	MIC [1] [µg/mL]	MIC (S. pneumoniae ATCC 49619) [µg/mL]	MIC (S. pyogenes ATCC 19615; [12]) [µg/mL]	MIC [4] [µg/mL]	MIC [5] [µg/mL]	MIC (E. coli ATCC 25922) [µg/mL]	MIC (S. aureus MMX 3035 cErmA) [µg/mL]	MIC (H. influenzae ATCC 49247; [15]) [µg/mL]	MIC (P. aeruginosa ATCC 27853) [µg/mL]	MIC [6] [µg/mL]	MIC [7] [µg/mL]	MIC [8] [µg/mL]	MIC (S. aureus BAA 977 iErmA) [µg/mL]	MIC (E. coli MMX 0121 ΔTolC) [µg/mL]	other results
CSC1O[C@H]([C@H](NC(=O)[C@H]2NC[C@@H]3C[C@@H](c4ccc(F)cc4F)CCO[C@H]32)[C@H](C)Cl)C(O)[C@@H](O)[C@H]1O (stereo partly drawn) [FSA-511078]	≤ 0.06	≤ 0.06	≤ 0.06												MIC (K. pneumoniae ATCC 10031): 8 µg/mL (≈ 14.5 µM); MIC (S. aureus MMX 3035 cErmA; [11]): > 64 µg/mL; MIC (E. coli ATCC 15922; [13]): > 64 µg/mL; MIC [2, 14]: 4 µg/mL (≈ 7.26 µM); MIC [3]: 8 µg/mL (≈ 14.5 µM); MIC (E. coli MP-9 ΔTolC): 2 µg/mL (≈ 3.63 µM)
CSC1O[C@H]([C@H](NC(=O)[C@H]2NC[C@H]3CC=CCO[C@H]32)[C@H](C)Cl)C(O)[C@@H](O)[C@H]1O (stereo partly drawn) [FSA-507051]	1 (≈ 2.29 µM)	1 (≈ 2.29 µM)		> 32	> 32	> 32	> 32	6 (≈ 13.7 µM)	> 32	> 32	> 32	> 32			MIC (E. faecalis ATCC 29212; ATCC29212): > 32 µg/mL; MIC (C. difficile BAA 1805): > 32 µg/mL; MIC (S. pyogenes ATCC 19615): 0.5 µg/mL (≈ 1.14 µM); MIC [2]: > 32 µg/mL
C=CC1=CCO[C@@H]2[C@H](CN[C@@H]2C(=O)N[C@H]([C@H](C)Cl)[C@H]2OC(SC)[C@H](O)[C@H](O)C2O)C1 (stereo partly drawn) [FSA-507041]	< 0.03	< 0.03	0.06 (≈ 0.13 µM)	> 32	> 32	> 32	> 32		> 32	> 32	> 32	> 32	0.5 (≈ 1.08 µM)		MIC (E. faecalis ATCC 29212; ATCC29212, read-out: MIC): 2 µg/mL (≈ 4.32 µM); MIC (C. difficile BAA 1805; [16]): 0.5 µg/mL (≈ 1.08 µM); MIC (B. fragilis ATCC 25285; [17]): 2 µg/mL (≈ 4.32 µM); MIC (S. aureus ATCC 29213; ATCC29213, S. aureus ATCC 29213, read-out: MIC): 0.5 µg/mL (≈ 1.08 µM)
CSC1O[C@H]([C@H](NC(=O)[C@H]2NC[C@@H]3C[C@H]4C[C@H]4CO[C@H]32)[C@H](C)Cl)C(O)[C@@H](O)[C@H]1O (stereo in doubt) [FSA-507007]			≤ 0.06					2 (≈ 4.43 µM)					0.5 (≈ 1.11 µM)	8 (≈ 17.7 µM)	MIC (K. pneumoniae ATCC 10031): > 64 µg/mL; MIC (C. difficile BAA 1805; [16]): 4 µg/mL (≈ 8.87 µM); MIC (E. coli ATCC 25922; E. coli ATCC 25922, read-out: MIC): > 64 µg/mL; MIC (S. aureus MMX 3035 cErmA; [11]): > 64 µg/mL; MIC (P. aeruginosa ATCC 27853; [18]): > 64 µg/mL; MIC ([6]; E. faecalis MMX 847 Macrolide-Resistant (MacRes), read-out: MIC): > 64 µg/mL; MIC [7, 19]: > 64 µg/mL; MIC ([8]; E. coli MMX TolC parent strain, read-out: MIC): > 64 µg/mL
CSC1O[C@H]([C@H](NC(=O)[C@H]2NC[C@@H]3C[C@@H](c4ccc(C(F)(F)F)cc4)CCO[C@H]32)[C@H](C)Cl)C(O)[C@@H](O)[C@H]1O (stereo partly drawn) [FSA-509019]								4 (≈ 6.86 µM)							MIC (P. aeruginosa ATCC 27853; [18]): > 64 µg/mL; MIC (E. coli ATCC 15922; [13]): > 64 µg/mL; MIC [7, 19]: > 64 µg/mL; MIC ([9]; S. aureus Micromyx USA 300, read-out: MIC): 0.5 µg/mL (≈ 0.858 µM)
CSC1O[C@H]([C@H](NC(=O)[C@@H]2[C@@H]3OCC=CC[C@H]3CN2C)[C@H](C)Sc2ccc(-c3cncnc3)cc2)C(O)[C@@H](O)[C@H]1O (stereo partly drawn) [FSA-212034]	≤ 0.06	≤ 0.06	≤ 0.06		> 64			4 (≈ 6.64 µM)	> 64	> 64	> 64	> 64		1 (≈ 1.66 µM)	MIC ([4]; S. pyogenes MMX 946 Macrolide-Resistant (MacRes), read-out: MIC): 2 µg/mL (≈ 3.32 µM); MIC (C. difficile BAA 1805): 0.5 µg/mL (≈ 0.829 µM); MIC (B. fragilis ATCC 25285; [17]): 1 µg/mL (≈ 1.66 µM); MIC (E. coli ATCC 15922): > 64 µg/mL; MIC [2, 14]: 4 µg/mL (≈ 6.64 µM); MIC [10]: 0.5 µg/mL (≈ 0.829 µM)
C[C@@H](O)[C@@H](NC(=O)[C@H]1NC[C@@H]2CC=CCO[C@H]21)[C@H]1OC(CN=[N+]=[N-])[C@H](O)[C@H](O)C1O (stereo partly drawn) [FSA-211064]			4 (≈ 9.36 µM)	> 64	> 64	> 64	> 64		> 64	> 64	> 64	> 64	> 64	> 64	MIC (E. faecalis ATCC 29212; ATCC29212): > 64 µg/mL; MIC (H. influenzae ATCC 49247): > 64 µg/mL; MIC (B. fragilis ATCC 25285): > 64 µg/mL; MIC [2]: > 64 µg/mL; MIC [9]: > 64 µg/mL; MIC (S. aureus ATCC 29213; ATCC29213): > 64 µg/mL
